Source: patent US6489340B1, “Macrolide compounds for inducing chondrogenic differentiation” (Fujisawa Pharmaceutical., Ltd., priority 1999, dated 2002)

Tested on: ATDC5 cells
Experiment: Induction of chondrogenic differentiation of ATDC5 cells (Alcian blue staining, proteoglycan amount)
Assay type: cell-based
Details: ATDC5 cells incubated 24 days; Alcian blue dye measured at 620 nm; FK506 1-1000 ng/ml
Experimental: The inducing activity by FK506 Substance on chondrogenic differentiation was evaluated in accordance with the below-mentioned method. (1) The ATDC5 cell line provided by RIKEN Cell Bank (Tsukuba, Japan) was grown in a 1:1 mixture of Dulbecco's modified Eagle's medium and Ham's F12 medium (Nikken Biomedical Laboratory, Kyoto, Japan) supplemented with 10 % heat-inactivated fetal bovine serum (Intergen, Purchase, N.Y.). […] (2) The above ATDC5 cells were plated in 12-multiwell plastic plate at a density of 1×10^5 cells/well in the medium. After 4 hr, the medium was replaced with fresh medium containing FK506 or Cyclosporin A (CsA), and the culture was continued for a 24 days with medium change every 2 or 3 days. Cells were fixed with methanol and stained 0.1% Alcian blue (Sigma Chemical Co., St. Louis, Mo.) dissolved in 0.1 M hydrochloric acid for 16 hr at room temperature. Cells were then rinsed three times with distilled water, and the amount of cell-associated dye was measured at 620 nm after extraction with 6 M guanidine-HCl (300 μl/well). ATDC5 cells were incubated with FK506 or CsA for 24 days and the amount of proteoglycan was assayed.

Row | Compound | inducing activity on chondrogenic differentiation (differentiation into chondrocyte; amount of proteoglycan)
1 | C=CC[C@@H]1/C=C(\C)C[C@H](C)C[C@H](OC)[C@H]2O[C@@](O)(C(=O)C(=O)N3CCCC[C@H]3C(=O)O[C@H](/C(C)=C/[C@@H]3CC[C@@H](O)[C@H](OC)C3)[C@H](C)[C@@H](O)CC1=O)[C@H](C)C[C@@H]2OC [FK506, 17-allyl-1,14-dihydroxy-12-[2-(4-hydroxy-3-methoxycyclohexyl) -1-methylvinyl]-23,25-dimethoxy-13,19,21,27-tetramethyl-11, 28-dioxa-4-azatricyclo [22.3.1.0^4,9]octacos-18-ene-2,3,10,16-tetraone] | induced differentiation into chondrocyte in a concentration-dependent manner
2 | Cyclosporin A [CsA] | did not induce the differentiation
